Source: patent publication US5688957A, “[(3"-thioxacyclohex-1"-enyl)]-but-3'-ene-1'-ynyl]aryl and [(3"-thioxacyclohex-1"-enyl)]-but-3'-ene-1'-ynyl]heteroaryl carboxylic acids and esters having retinoid-like biological activity” (Allergan, priority 1995, dated 1997)

Test system: ornithine decarboxylase (ODC)
Test: inhibition of TPA induction of ornithine decarboxylase (ODC) activity
Assay type: in vivo
Settings: for IC60: concentration which results in 60% inhibition; for IC80: IC80 column
Excerpt: The retinoid-like activity of these compounds is confirmed through the classic measure of retinoic acid activity involving the effects of retinoic acid on ornithine decarboxylase. The original work on the correlation between retinoic acid and decrease in cell proliferation was done by Verma & Boutwell, Cancer Research, 1977, 37,2196-2201. That reference discloses that ornithine decarboxylase (ODC) activity increased precedent to polyamine biosynthesis. It has been established elsewhere that increases in polyamine synthesis can be correlated or associated with cellular proliferation. Thus, if ODC activity could be inhibited, cell hyperproliferation could be modulated. Although all causes for ODC activity increases are unknown, it is known that 12-0-tetradecanoylphorbol-13-acetate (TPA) induces ODC activity. Retinoic acid inhibits this induction of ODC activity by TPA. […] The results of this assay for certain exemplary compounds of the invention are shown in Table 1 below, wherein either the IC80 or IC60 value for each exemplary compound is indicated in namolar concentration units. (As is known in the art, the IC60 value is that concentration of the compound (in nanomols) which results in 60% inhibition.)

| Compound | IC60 [nM] | IC80 [nM] |
| --- | --- | --- |
| CCOC(=O)c1ccc(C#C/C=C/C2=C(C)SCCC2(C)C)cc1 [Compound 1, Ethyl 4-[4'-(2",6",6",-Trimethyl-3"-thioxacyclohex-1"-enyl)-but-3'(E)-ene-1'-ynyl]benzoate] | 3.8 | – |
| CC1=C(/C=C/C#Cc2ccc(C(=O)O)cc2)C(C)(C)CCS1 [Compound 2, 4-[4'-(2",6",6"-Trimethyl-3"-thioxacyclohex-1"-enyl) -but-3'(E)-ene-1'-ynyl]benzoic Acid] | 1.4 | – |
| CCOC(=O)c1ccc(C#C/C=C/C2=C(C)SCCC2(C)C)nc1 [Compound 3, Ethyl 6-[4'-(2",6",6"-Trimethyl-3"-thioxacyclohex-1"-enyl)-but-3'(E)-ene-1'-ynyl]nicotinate] | – | 28 |
| CC1=C(/C=C/C#Cc2ccc(C(=O)O)cn2)C(C)(C)CCS1 [Compound 4, 6-[4'-(2",6",6"-Trimethyl-3"-thioxacyclohex-1"-enyl)-but-3'(E) -ene-1'-ynyl]nicotinic Acid] | – | 33.6 |
